A value given as a limit tells only on which side of the number the result lay.

The target of series [1] is T1, Mucosa-associated lymphoid tissue lymphoma translocation protein 1 (Homo sapiens, UniProt Q9UDY8).
T1 sequence (Q9UDY8 whole entry): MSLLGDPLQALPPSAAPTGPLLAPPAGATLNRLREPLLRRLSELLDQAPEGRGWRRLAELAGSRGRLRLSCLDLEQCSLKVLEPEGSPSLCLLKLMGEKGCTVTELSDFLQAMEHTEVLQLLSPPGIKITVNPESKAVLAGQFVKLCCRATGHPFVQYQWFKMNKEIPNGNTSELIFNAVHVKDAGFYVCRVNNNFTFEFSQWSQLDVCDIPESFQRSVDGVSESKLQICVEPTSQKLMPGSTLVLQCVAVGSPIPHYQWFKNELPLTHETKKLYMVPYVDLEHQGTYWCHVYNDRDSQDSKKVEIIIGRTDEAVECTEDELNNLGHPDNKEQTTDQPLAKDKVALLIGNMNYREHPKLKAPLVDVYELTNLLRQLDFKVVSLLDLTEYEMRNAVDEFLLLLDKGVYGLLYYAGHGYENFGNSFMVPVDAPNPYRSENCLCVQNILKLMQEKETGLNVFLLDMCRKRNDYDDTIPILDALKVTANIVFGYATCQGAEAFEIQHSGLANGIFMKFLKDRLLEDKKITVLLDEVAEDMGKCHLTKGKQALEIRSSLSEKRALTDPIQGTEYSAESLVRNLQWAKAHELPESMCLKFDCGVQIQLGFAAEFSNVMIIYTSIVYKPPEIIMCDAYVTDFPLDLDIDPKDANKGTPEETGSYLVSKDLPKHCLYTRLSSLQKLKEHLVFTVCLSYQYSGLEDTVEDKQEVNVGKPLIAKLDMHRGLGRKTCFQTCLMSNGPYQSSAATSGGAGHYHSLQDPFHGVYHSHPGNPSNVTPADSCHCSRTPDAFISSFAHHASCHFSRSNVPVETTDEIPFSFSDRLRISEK
As to the kind of experiment: Inhibition of MALT1 (unknown origin).

The nature of series [2]: Inhibition of IL-2 production in PMA/ionomycin stimulated human Jurkat T cells. Type of series: functional, cell-based.
The nature of series [3]: Drug concentration in BALB/cAnNCrlCr mouse at 1 mg/kg, iv administered as single dose. Type of series: ADME, organism-based. Particulars: in vivo.
Series [4] in a line: Total clearance in BALB/cAnNCrlCr mouse at 1 mg/kg, iv administered as single dose. Type of series: ADME, organism-based. Conditions: in vivo.
Series [5] can be described thus: Tmax in BALB/cAnNCrlCr mouse at 2 mg/kg, po administered as single dose. It counts as ADME, organism-based. Conditions: in vivo.
Series [6] in a line: AUC (0 to infinity) in BALB/cAnNCrlCr mouse at 2 mg/kg, po administered as single dose. Conditions: in vivo. More on the design: dose 2 mg/kg, route po. Type of series: ADME, organism-based.
A short description of series [7]: Half-life in BALB/cAnNCrlCr mouse at 1 mg/kg, iv administered as single dose. It counts as ADME, organism-based. Particulars: in vivo.
The nature of series [8]: Oral bioavailability in BALB/cAnNCrlCr mouse at 2 mg/kg administered as single dose. Particulars: in vivo. Type of series: ADME, organism-based.
The nature of series [9]: AUC (0 to infinity) in BALB/cAnNCrlCr mouse at 1 mg/kg, iv administered as single dose. It counts as ADME, organism-based. More on the design: dose 1 mg/kg, route iv. Conditions: in vivo.
A short description of series [10]: Half-life in BALB/cAnNCrlCr mouse at 2 mg/kg, po administered as single dose. Type of series: ADME, organism-based. Particulars: in vivo.
A short description of series [11]: Apparent permeability of the compound in human Caco-2 cells. Type of series: ADME, cell-based. Background: Caco-2 cells form a polarised layer with tight junctions and transporters.
Series [12] in a line: Cmax in BALB/cAnNCrlCr mouse at 2 mg/kg, po administered as single dose. Type of series: ADME, organism-based. More on the design: dose 2 mg/kg, route po. Particulars: in vivo.

`O=C(NCCc1ccccc1)c1cc(-c2ccc(Cl)cc2)n(-c2ccc(Cl)cc2)n1`: the IC50 in series [1] is > 25000 nM. Turning to `N/C(=N\S(=O)(=O)c1cccs1)NCc1cc(-c2ccc(Cl)cc2)n(-c2ccc(Cl)cc2)n1`, the figures for the IC50 in [2] and in series [1] were 1290 nM and 249 nM, respectively. Consider `N/C(=N\S(=O)(=O)Cc1ccccc1)NCc1cc(-c2ccc(Cl)cc2)n(-c2ccc(Cl)cc2)n1`, for which half-maximal inhibition in series [1] (IC50) required 774 nM. Consider `N/C(=N\S(=O)(=O)c1ccncc1)NCc1cc(-c2ccc(Cl)cc2)n(-c2ccc(Cl)cc2)n1`, for which the IC50 in series [1] was 562 nM. On the same count and under the same terms, in the case of `CC(C)[C@H](N)C(=O)NCc1cc(-c2ccc(Cl)cc2)n(-c2ccc(Cl)cc2)n1` it was 1850 nM; in that of `O=C(NCc1cc(-c2ccc(Cl)cc2)n(-c2ccc(Cl)cc2)n1)c1ccccc1`, > 25000 nM; in that of `NC(=O)NCc1cc(-c2ccc(Cl)cc2)n(-c2ccc(Cl)cc2)n1`, 1430 nM. On to `CS(=O)(=O)/N=C(\NCc1ccccc1)NCc1cc(-c2ccc(Cl)cc2)n(-c2ccc(Cl)cc2)n1`, for which the IC50 in series [2] is 1100 nM; in series [1] it was 31 nM. `N#C/N=C(\N)NCc1cc(-c2ccc(Cl)cc2)n(-c2ccc(Cl)cc2)n1` displayed an IC50 in series [1] of 1590 nM. Still for that read-out and setting: with `N/C(=N\S(=O)(=O)C1CC1)NCc1cc(-c2ccc(Cl)cc2)n(-c2ccc(Cl)cc2)n1` the figure was 258 nM. Still for that read-out and setting: in the case of `CCN/C(=N\S(C)(=O)=O)NCc1cc(-c2ccc(Cl)cc2)n(-c2ccc(Cl)cc2)n1` it was 848 nM. For `COc1cccc(S(=O)(=O)/N=C(\N)NCc2cc(-c3ccc(Cl)cc3)n(-c3ccc(Cl)cc3)n2)c1`, the IC50 in series [2] came out at 2060 nM; in series [1] it was 60 nM. For `Cn1ccc(S(=O)(=O)/N=C(\N)NCc2cc(-c3ccc(Cl)cc3)n(-c3ccc(Cl)cc3)n2)n1`, in series [1], half-maximal inhibition (IC50) required 510 nM.

In the case of `CN(C)CC(=O)NCc1cc(-c2ccc(Cl)cc2)n(-c2ccc(Cl)cc2)n1`, the IC50 in series [1] came to 3880 nM. `CC(=O)N[C@H](C(=O)NCc1cc(-c2ccc(Cl)cc2)n(-c2ccc(Cl)cc2)n1)C(C)C`: the IC50 in series [1] worked out at 2060 nM. Turning to `N/C(=N\S(=O)(=O)c1ccccc1)NCc1cc(-c2ccc(Cl)cc2)n(-c2ccc(Cl)cc2)n1`, the Drug uptake in [3] was determined as 1920 ng/mL. Besides, the clearance in [4] is 3 mL/min/kg. Also, the Tmax in series [5] is 2 h. Also, the AUC(0-inf) stood at 4450 ng·h/mL in series [6] and 5570 ng·h/mL in series [9]. The half-life in series [7] is 3.37 h; in series [10], 4.82 h. Further, the IC50 in series [2] is 1400 nM; in series [1] it was 93 nM. The bioavailability in series [8] was 39.9%. Moreover, the Papp in series [11] worked out at 3 ×10⁻⁶ cm/s. In addition, the Cmax in [12] amounted to 560 ng/mL.

`O=C(CCc1ccccc1)NCc1cc(-c2ccc(Cl)cc2)n(-c2ccc(Cl)cc2)n1`: the IC50 in series [1] was 262 nM. On the same count and under the same terms, with `CS(=O)(=O)/N=C(\NCc1cccc(Cl)c1)NCc1cc(-c2ccc(Cl)cc2)n(-c2ccc(Cl)cc2)n1` the figure was 20 nM; with `CC(=O)NCc1cc(-c2ccc(Cl)cc2)n(-c2ccc(Cl)cc2)n1`, 1770 nM. On to `CS(=O)(=O)/N=C(\NCc1ccccn1)NCc1cc(-c2ccc(Cl)cc2)n(-c2ccc(Cl)cc2)n1`, for which it took 34 nM to reach half-maximal inhibition in series [1] (IC50). Compound `NC(C(=O)NCc1cc(-c2ccc(Cl)cc2)n(-c2ccc(Cl)cc2)n1)c1ccccn1` (configuration not stated) returned an IC50 in series [1] of 227 nM. Same read-out and setting: with `CN(C)[C@@H](CO)C(=O)NCc1cc(-c2ccc(Cl)cc2)n(-c2ccc(Cl)cc2)n1` the figure was 4020 nM.

Turning to `N[C@H](C(=O)NCc1cc(-c2ccc(Cl)cc2)n(-c2ccc(Cl)cc2)n1)c1ccccc1`, the IC50 stood at 2660 nM in series [2] and 53 nM in series [1].

In turn, `O=C(NCc1cc(-c2ccc(Cl)cc2)n(-c2ccc(Cl)cc2)n1)C(O)c1ccccc1` (configuration not stated) came in with an IC50 in series [1] of 159 nM. Still for that read-out and setting: with `CN(C)[C@@H](CO)CNC(=O)c1cc(-c2ccc(Cl)cc2)n(-c2ccc(Cl)cc2)n1` the figure was 690 nM; with `CS(=O)(=O)/N=C(/NCc1cc(-c2ccc(Cl)cc2)n(-c2ccc(Cl)cc2)n1)NCc1cccs1`, 26 nM. Take `CC(=O)NC(C(=O)NCc1cc(-c2ccc(Cl)cc2)n(-c2ccc(Cl)cc2)n1)c1ccccn1` (configuration not stated): the IC50 in series [2] was 4170 nM; in series [1] it was 56 nM. In turn, `N[C@@H](C(=O)NCc1cc(-c2ccc(Cl)cc2)n(-c2ccc(Cl)cc2)n1)c1ccccc1` gave an IC50 in [1] of 368 nM.

`CC(=O)/N=C(\N)NCc1cc(-c2ccc(Cl)cc2)n(-c2ccc(Cl)cc2)n1` showed an IC50 in [1] of 1540 nM. Compound `N[C@@H](Cc1ccccc1)C(=O)NCc1cc(-c2ccc(Cl)cc2)n(-c2ccc(Cl)cc2)n1` showed an IC50 in [1] of 280 nM. For the compound `O=C(Cc1ccccc1)NCc1cc(-c2ccc(Cl)cc2)n(-c2ccc(Cl)cc2)n1`, inhibition in [1] was half-maximal at 188 nM (IC50).

As to `CS(=O)(=O)/N=C(\N)NCc1cc(-c2ccc(Cl)cc2)n(-c2ccc(Cl)cc2)n1`, it took 401 nM to reach half-maximal inhibition in series [1] (IC50). Still for that read-out and setting: in the case of `N/C(=N\S(=O)(=O)C1CCCCC1)NCc1cc(-c2ccc(Cl)cc2)n(-c2ccc(Cl)cc2)n1` it was 762 nM. Consider `CC(=O)N[C@H](C(=O)NCc1cc(-c2ccc(Cl)cc2)n(-c2ccc(Cl)cc2)n1)c1ccccc1`, for which the IC50 turned out to be 5020 nM in series [2] and 42 nM in series [1]. In series [1], `CS(=O)(=O)NCc1cc(-c2ccc(Cl)cc2)n(-c2ccc(Cl)cc2)n1` came in with an IC50 of 2190 nM. Take `CS(=O)(=O)/N=C(/NCc1cc(-c2ccc(Cl)cc2)n(-c2ccc(Cl)cc2)n1)NCC1CC1`: the IC50 in series [2] came out at 1640 nM; in [1], 53 nM. Compound `CS(=O)(=O)/N=C(/NCc1cc(-c2ccc(Cl)cc2)n(-c2ccc(Cl)cc2)n1)N[C@H](CO)c1ccccc1` showed an IC50 in series [1] of 45 nM. Take `CS(=O)(=O)N[C@H](C(=O)NCc1cc(-c2ccc(Cl)cc2)n(-c2ccc(Cl)cc2)n1)c1ccccc1`: the half-inhibitory concentration (IC50) in [2] is > 10000 nM; in [1], 60 nM. The matching figures for `N/C(=N\S(=O)(=O)c1cccc(F)c1)NCc1cc(-c2ccc(Cl)cc2)n(-c2ccc(Cl)cc2)n1`: 1350 nM and 56 nM. For `CN(C)[C@H](C(=O)NCc1cc(-c2ccc(Cl)cc2)n(-c2ccc(Cl)cc2)n1)c1ccccc1` the same measures were 1720 nM and 53 nM. `NC(=O)/N=C(\N)NCc1cc(-c2ccc(Cl)cc2)n(-c2ccc(Cl)cc2)n1` gave an IC50 in series [1] of 1110 nM.

As a reminder, the IC50 is the concentration needed to halve the response being measured. Read a low IC50 as higher potency. By clearance is commonly meant the volume of plasma or blood freed of the substance per unit of time. A low value points to inefficient removal. In general, Tmax refers to the time from dosing to the highest level. By AUC(0-inf) is commonly meant the area under the concentration-time curve extrapolated to infinity. One may read the half-life as how long it takes for the measured level to halve. The low end stands for rapid decline, the high end for slow decline. A word on the bioavailability: it is dose-corrected exposure relative to a reference, in per cent. Low readings indicate poor availability, high ones good availability. The term Papp denotes the rate of passage across a membrane or cell layer, normalised by area and donor concentration. The term Cmax denotes the highest concentration seen after dosing.

The values are drawn from ChEMBL document CHEMBL5241134, “Discovery of orally bioavailable inhibitors of MALT1 with in vivo activity for psoriasis” (Bioorg Med Chem Lett, 2023).
